This is an account of results in US20240182456A1, “2-((4-((S)-2-(4-CHLORO-2-FLUOROPHENYL)-2-METHYLBENZO[D][1,3]DIOXOL-4-YL)PIPERIDIN-1-YL)METHYL)-1-(((S)-OXETAN-2-YL)METHYL)-1H-IMIDAZOLE DERIVATIVES AS ACTIVATORS OF THE GLP1 RECEPTOR FOR THE TREATMENT OF OBESITY” (Novartis AG, priority 2021, published 2024).

SMILES strings stand for the structures. A value given as a limit tells only on which side of the number the result lay.

Assay type in all cases: cell-based
The target of one test is human GLP1R (Homo sapiens, UniProt P43220). Nature of the test: Human GLP1R DERET internalization assay. Conditions: HEK293-SNAP-hGLP1R-GloSensor cells; for EC50: mean n=2; for Emax: relative to GLP1(7-36). Here is the method: (§1) Compounds 1 to 31 were tested in the following cellular assays that measure the intracellular cAMP concentration, beta-arrestin recruitment and receptor internalization. The cAMP is generated by the activation of GLP1R. The cAMP data obtained is shown in Table 1 (where S.E.M. is included, mean n=3 independent experiments+/−S.E.M). Beta-arrestin is recruited upon activation of GLP1R and the data obtained are shown in Table 2 (mean n=2 independent experiments, +/−S.D). The extent to which the GLP1R is internalized into the cell and away from the plasma membrane following activation is also shown in Table 2 (mean n=2 independent experiments, +/−S.D). EC50 for each assay is defined as the concentration of the compound that leads to half of the maximum response (after baseline correction). Emax is defined as the maximum response observed for the test compound, normalized to the maximum response observed for the endogenous ligand (GLP1(7-36)) to GLP1R.
human GLP1R, sequence (P43220 24-463): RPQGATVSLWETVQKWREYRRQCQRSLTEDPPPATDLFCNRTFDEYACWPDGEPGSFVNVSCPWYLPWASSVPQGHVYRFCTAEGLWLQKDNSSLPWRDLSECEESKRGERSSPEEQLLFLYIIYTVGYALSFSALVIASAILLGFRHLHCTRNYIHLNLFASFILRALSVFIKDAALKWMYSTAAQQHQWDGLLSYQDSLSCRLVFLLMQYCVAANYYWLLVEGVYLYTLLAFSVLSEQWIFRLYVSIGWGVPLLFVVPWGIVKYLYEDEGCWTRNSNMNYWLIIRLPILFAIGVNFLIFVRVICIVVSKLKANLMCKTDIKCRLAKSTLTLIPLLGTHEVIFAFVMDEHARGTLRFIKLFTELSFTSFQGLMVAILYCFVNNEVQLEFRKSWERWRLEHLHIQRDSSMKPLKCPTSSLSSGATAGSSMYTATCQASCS
The extent to which agonists internalize the human GLP1R was determined based on an optimized version of a RealTime FRET-based ‘DERET’ (Dissociation Enhanced Resonance Energy Transfer) assay. The technology relies on labeling of the SNAP-tagged GPCR with a SNAP-Lumi-Terbium (donor fluorophore, Cisbio, cat #SSNPTBD). The compounds are incubated with the cells over-expressing the GPCR of interest in the presence of an excess of fluorescein (acceptor fluorophore). When the GPCR is on the cell surface, the donor signal is quenched by the acceptor and the donor/acceptor ratio is low. As the GPCR internalizes, the donor signal is no longer quenched, and the acceptor is no longer excited so the donor/acceptor ratio increases.
HEK293-SNAP-hGLP1R-GloSensor cells (stably overexpressing SNAP-tagged hGLP1R) were seeded overnight in white 384-well poly-D-Lysine coated plates (Greiner Bio One, cat #781945) in regular DMEM growth medium (Gibco, cat #11965-092, 10% heat-inactivated FBS, 10 mM HEPES, 1× penicillin/streptomycin, 0.5 mg/mL geneticin (Gibco, cat #10131-035) and 0.25 mg/mL hygromycin B (Invitrogen, cat #10687010). On the assay day, cell medium was removed and 100 nM SNAP-Lumi-Tb reagent was added in Opti-MEM solution. The cells were incubated at 37° C. for 1 h. Cells were washed using a plate washer in assay buffer [1×HBSS (10× Gibco, cat #14065-056), 20 mM Hepes (Gibco, cat #15630-080), 1 mM CaCl2 (Fluka, cat #21114-1L), 1 mM MgCl2 (Ambion, cat #AM9530G) pH7.4], and 20 μL buffer with 0.1% BSA was added to each well. After leaving cells to equilibrate for ˜15 min at 37° C., 10 μL of Fluorescein (sodium salt, Sigma, cat #F6377, diluted in buffer) was added at 25 μM final concentration. To generate triplicate dose response curves, compounds were serially diluted 3-fold in assay buffer, then added to the cell assay plate to a final volume of 40 μL and final top concentrations starting at 30 μM. In the same plate and assay buffer as the tested compounds, a GLP1 (7-36) peptide (Bachem, cat #H-6795) control curve was included at a final top concentration of 1 μM in order to establish EC100. EC0 wells with buffer only were also included. The plate FRET fluorescence was measured immediately using a Perkin Elmer Envision with LANCE/DELFIA D400 single mirror, excitation filter X320, and emission filters M615_203 (donor emission) and M515 (acceptor emission), and then measured every 30 min. […] Plates were kept at 37° C. between reads. Data was expressed as the ratio of donor/acceptor emissions using Microsoft Excel and plotted in GraphPad Prism. In order to determine EC50 and Emax for internalization, data was calculated and expressed as percent of the GLP1 (7-36) EC100 control wells: [(sample signal−mean EC0 signal)/(mean EC100 of GLP1 (7-36) signal−mean EC0 signal)]*100 using Microsoft Excel. Curve fitting for EC50 determinations was performed using GraphPad Prism. The 4-parameter logistic model, Hill slope was used:
Y=Bottom+(Top−Bottom)/(1+10^((Log EC50−X)*Hill Slope)), […]

Test [1] has as its target T1, human GLP1R (hGLP1R) (Homo sapiens, UniProt P43220). Nature of the test: Human GLP1R β-arrestin recruitment assay (PathHunter). Details: insert synthesized by GeneArt 93-0164 (cells); 93-0491 (vector bundle). Conditions: CHO-hGLP1R-β-arrestin cells; for EC50: mean n=2, read-out: Beta-Arrestin assay EC50 Mean; for Emax: relative to GLP1(7-36), read-out: Beta-Arrestin assay Emax. As to the method: as §1
The extent to which agonists recruited β-arrestin was measured using the PathHunter® β-arrestin assay (DiscoverX). This assay measures binding of β-arrestin to the receptor using an enzyme complementation approach. […] When β-arrestin is recruited to the receptor the enzyme becomes active and generates luminescence in the presence of a chemiluminescent substrate (PathHunter® Detection Kit, DiscoverX cat #93-0001). Luminescence can be measured on a relevant detector. CHO-hGLP1R-β-arrestin cells stably overexpressing hGLP1R with Prolink tag and β-arrestin with EA tag were seeded at 20 μL per well in white 384-well poly-D-Lysine coated plates (Greiner Bio One, cat #781945) in Plating Reagent 2 (DiscoverX, cat #93-0563R2A), and incubated overnight at 37° C., 5% CO2 with humidity. The following day, agonists were prepared at 5 times the final required concentration. To generate triplicate dose response curves, compounds were serially diluted 3-fold in assay buffer (HBSS, 10 mM Hepes and 0.1% BSA), then added to the cell assay plate to a final volume of 25 μL and final top concentrations starting at 30 μM. In the same plate and assay buffer as the tested compounds, were EC100 control wells containing GLP1 (7-36) peptide (Bachem, cat #H-6795) at a final concentration of 1 μM and also EC0 control wells containing no compound. The plate was incubated at 37° C., 5% CO2 with humidity for 2 h after adding the compounds to the cells. Then the detection reagent was prepared (19 parts cell assay buffer, 5 parts substrate reagent 1 and 1 part substrate reagent 2 as per manufacturers recommendations, DiscoverX cat #93-0001), and 12 μL were added per well to the cell assay plate. The plate was incubated for an additional hour in the dark at RT. Luminescence was then measured with an Envision 2104 Multilabel reader with “TRF Light Unit, 337 nm” (Perkin Elmer) using the Ultra-Sensitive protocol setting “384-well US luminescence detector” with the 384-well luminescence aperture, 0.1 sec per well. β-arrestin recruitment was calculated and expressed as percent of the GLP1 (7-36) EC100 control wells: [(sample signal−mean EC0 signal)/(mean EC100 of GLP1 (7-36) signal−mean EC0 signal)]*100 using Microsoft Excel. Curve fitting for EC50 determinations was performed using GraphPad Prism. The 4-parameter logistic model, Hill slope was used: Y=Bottom+(Top−Bottom)/(1+10^((Log EC50−X)*Hill Slope)), where Y is the functional response; X is the compound concentration; bottom is A0 or the minimum value (at 0 dose); top is Ainf or the maximum value (at infinite dose); EC50 is the point of inflection (i.e. the point on the sigmoid shaped curve halfway between A0 and Ainf). The EC50 value was calculated in μM. Emax is the maximal activity detected within the concentration range, derived from the fitted curve relative to GLP1(7-36). […]
Background: Recruitment of arrestin is a read-out of receptor activation apart from second messengers.

The target in test [2] is T1, human GLP1R (hGLP1R). Nature of the test: Human GLP1R cAMP agonist assay (GloSensor). The conditions noted are these: HEK293-SNAP-hGLP1R-GloSensor cells; for Emax: cAMP, normalized to GLP1(7-36) maximum response, read-out: Emax mean; for EC50: intracellular cAMP, mean n=3 where SEM is given. The method, boiled down: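 HEK293 cells stably expressing SNAP-tagged hGLP1R and the GloSensor-22F cAMP luciferase biosensor, pre-loaded 2 h with substrate, then exposed 12 min at rt to compound (30–0.06 μM, 0.5 mM IBMX, 0.1% BSA). Luminescence normalized to 2 nM GLP1(7-36); EC50 and Emax from 4-parameter logistic fit.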

T1 sequence (P43220 24-463): as above

A word on the EC50: it is the concentration that produces a half-maximal response. The term Emax denotes the greatest response seen or fitted, relative to the assay's reference. For `C[C@]1(c2ccc(Cl)cc2F)Oc2cccc(C3CCN(Cc4nc5ccc(C(=O)O)cc5n4C[C@@H]4CCO4)CC3)c2O1` [Reference compound, 2-((4-((S)-2-(4-chloro-2-fluorophenyl)-2-methylbenzo[d][1,3]dioxol-4-yl)piperidin-1-yl)methyl)-1-(((S)-oxetan-2-yl)methyl)-1H-benzo[d]imidazole-6-carboxylic acid, reference compound], the EC50 at human GLP1R is 15 nM; on human GLP1R (hGLP1R) [1], 123 nM. The results for the Emax on human GLP1R and at human GLP1R (hGLP1R) [1] were 87% and 27%, respectively.

For the compound `Cc1nc(CN2CCC(c3cccc4c3O[C@@](C)(c3ccc(Cl)cc3F)O4)CC2)n(C[C@@H]2CCO2)c1C(=O)O` [Compound C-3, 2-((4-((S)-2-(4-chloro-2-fluorophenyl)-2-methylbenzo[d][1,3]dioxol-4-yl)piperidin-1-yl)methyl)-4-methyl-1-(((S)-oxetan-2-yl)methyl)-1H-imidazole-5-carboxylic acid], on human GLP1R (hGLP1R) [2], the Emax turned out to be 108% and the half-maximal effective concentration (EC50) amounted to 1.65 nM. In addition, at human GLP1R (hGLP1R) [1], the 50% effective concentration (EC50) is greater than 30000 nM and the Emax came to 0%.

`C[C@]1(c2ccc(Cl)cc2F)Oc2cccc(C3CCN(Cc4nc(F)c(/C=C/C(=O)O)n4C[C@@H]4CCO4)CC3)c2O1` [Compound C-18, (E)-3-(2-((4-((S)-2-(4-chloro-2-fluorophenyl)-2-methylbenzo[d][1,3]dioxol-4-yl)piperidin-1-yl)methyl)-4-fluoro-1-(((S)-oxetan-2-yl)methyl)-1H-imidazol-5-yl)acrylic acid]: on human GLP1R (hGLP1R) [2], the Emax was 116% and the EC50 came to 0.0253 nM. At human GLP1R, this compound had a 50% effective concentration (EC50) of 197 nM and an Emax of 90%.

With `Cc1c(/C=C/C(=O)O)nc(CN2CCC(c3cccc4c3O[C@@](C)(c3ccc(Cl)cc3F)O4)CC2)n1C[C@@H]1CCO1` [Compound C-6, (E)-3-(2-((4-((S)-2-(4-chloro-2-fluorophenyl)-2-methylbenzo[d][1,3]dioxol-4-yl)piperidin-1-yl)methyl)-5-methyl-1-(((S)-oxetan-2-yl)methyl)-1H-imidazol-4-yl)acrylic acid], the Emax at human GLP1R (hGLP1R) [2] was found to be 105%; at human GLP1R, 5%. The EC50 was 6.72 nM on human GLP1R (hGLP1R) [2] and greater than 30000 nM on human GLP1R.

For the compound `Cc1nc(CN2CCC(c3cccc4c3O[C@@](C)(c3ccc(Cl)cc3F)O4)CC2)n(C[C@@H]2CCO2)c1/C=C(\F)C(=O)O` [Compound C-19b, (Z)-3-(2-((4-((S)-2-(4-chloro-2-fluorophenyl)-2-methylbenzo[d][1,3]dioxol-4-yl)piperidin-1-yl)methyl)-4-methyl-1-(((S)-oxetan-2-yl)methyl)-1H-imidazol-5-yl)-2-fluoroacrylic acid], the maximal effect (Emax) on human GLP1R (hGLP1R) [2] is 111%; at human GLP1R, 27%. For the same compound, the EC50 was 0.98 nM at human GLP1R (hGLP1R) [2] and greater than 30000 nM at human GLP1R.
